From ChEMBL document CHEMBL4808169, “Discovery of Potent and Fast-Acting Antimalarial Bis-1,2,4-triazines” (J Med Chem, 2021)

Key:
[1] = Drug metabolism in rat hepatocytes assessed as oxygenated metabolite N-methyl-2-(3'-propoxy-5,5'-bi(1,2,4-triazin)-3-yloxy)ethanamine oxide formation by LC-MS/MS(CID) analysis; assay type: ADME, cell-based, Hepatocyte
[2] = Metabolic stability of compound in Sprague-Dawley rat blood assessed as parent compound loss measured over 4 hrs by LC-MS analysis; assay type: ADME, tissue-based; conditions: whole blood, read-out: Drug degradation
[3] = Volume of distribution at steady state in Swiss mouse at 2.7 mg/kg, iv measured up to 24 hrs by LC-MS analysis; assay type: ADME, organism-based; conditions: in vivo, read-out: Vdss
[4] = Drug metabolism in human hepatocytes assessed as oxygenated metabolite N-methyl-2-(3'-propoxy-5,5'-bi(1,2,4-triazin)-3-yloxy)ethanamine oxide formation by LC-MS/MS(CID) analysis; assay type: ADME, cell-based, Hepatocyte
[5] = Drug metabolism in Sprague-Dawley rat feces assessed as M-32 metabolite formation at 10 mg/kg, po by high-resolution mass spectrometry; assay type: ADME, organism-based; conditions: in vivo
[6] = Drug metabolism in Sprague-Dawley rat feces assessed as M-32 metabolite formation at 3 mg/kg, iv by high-resolution mass spectrometry; assay type: ADME, organism-based; conditions: in vivo
[7] = Kinetic solubility of compound at pH 2 by nephelometry; assay type: physicochemical; conditions: buffer, read-out: Kinetic_solubility
Plasmodium berghei = assay: Antiplasmodial activity against Plasmodium berghei ANKA infected in po dosed Swiss mouse administered at 2 hrs post infection and measured on day 4 by Peter's 4-day test; assay type: functional
[8] = Drug metabolism in Sprague-Dawley rat urine assessed as N-methyl-2-(3'-propoxy-5,5'-bi(1,2,4-triazin)-3-yloxy)ethanamine formation at 3 mg/kg, iv by high-resolution mass spectrometry; assay type: ADME, organism-based; conditions: in vivo
[9] = Drug metabolism in human hepatocytes assessed as oxygenated metabolite M+16(2) formation by LC-MS/MS(CID) analysis; assay type: ADME, cell-based, Hepatocyte
[10] = Drug metabolism in rat hepatocytes assessed as oxygenated metabolite M+16(1) formation by LC-MS/MS(CID) analysis; assay type: ADME, cell-based, Hepatocyte
[11] = Drug metabolism in human liver microsomes assessed as oxygenated metabolite M+16(1) formation by LC-MS/MS(CID) analysis; assay type: ADME, Microsome
[12] = Drug metabolism in rat liver microsomes assessed as formation of cleavage product M-69 by LC-MS/MS(CID) analysis; assay type: ADME, Microsome
Cytochrome P450 3A4 = Cytochrome P450 3A4 (Homo sapiens, UniProt P08684); assay: Inhibition of CYP3A4 in human liver microsomes assessed as reduction in testosterone 6beta-hydroxylation activity by high-pressure liquid chromatography-tandem mass spectrometry; assay type: ADME
Cytochrome P450 3A4, sequence (P08684 whole entry): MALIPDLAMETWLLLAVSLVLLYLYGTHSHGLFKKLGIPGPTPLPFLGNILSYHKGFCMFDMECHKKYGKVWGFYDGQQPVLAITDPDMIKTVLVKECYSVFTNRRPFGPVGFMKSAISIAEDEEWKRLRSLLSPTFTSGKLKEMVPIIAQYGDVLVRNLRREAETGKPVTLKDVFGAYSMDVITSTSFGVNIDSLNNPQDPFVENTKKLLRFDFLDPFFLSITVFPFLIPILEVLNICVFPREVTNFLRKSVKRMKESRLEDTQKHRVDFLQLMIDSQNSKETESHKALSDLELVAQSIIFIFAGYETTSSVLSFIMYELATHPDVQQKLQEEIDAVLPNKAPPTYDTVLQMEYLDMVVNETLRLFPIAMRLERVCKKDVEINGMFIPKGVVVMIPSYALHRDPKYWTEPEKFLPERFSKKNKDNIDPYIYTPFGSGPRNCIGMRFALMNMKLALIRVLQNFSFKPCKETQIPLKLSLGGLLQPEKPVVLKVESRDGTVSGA

[13] = AUC (0 to infinity) in Swiss mouse plasma at 2.8 mg/kg, po measured up to 24 hrs by LC-MS analysis
[14] = Drug metabolism in Sprague-Dawley rat feces assessed as oxygenated metabolite M+16(1) formation at 3 mg/kg, iv by high-resolution mass spectrometry; assay type: ADME, organism-based; conditions: in vivo
[15] = Intrinsic clearance in mouse hepatocytes assessed per million cells by UPLC-MS analysis; assay type: ADME, cell-based, Hepatocyte; conditions: read-out: CLH
[16] = Cmax in Swiss mouse plasma at 2.8 mg/kg, po measured up to 24 hrs by LC-MS analysis; assay type: ADME, organism-based; parameters: route oral, dose 2.8 mg/kg, time <=24
[17] = Drug metabolism in Sprague-Dawley rat feces assessed as oxygenated metabolite M+16(2) formation at 10 mg/kg, po by high-resolution mass spectrometry; assay type: ADME, organism-based; conditions: in vivo
[18] = Drug recovery in bile cannulated Sprague-Dawley rat bile at 3 mg/kg, iv measured up to 4 hrs by LC-MS analysis; assay type: ADME, organism-based; conditions: read-out: Drug recovery
[19] = Drug metabolism in mouse hepatocytes assessed as oxygenated metabolite N-methyl-2-(3'-propoxy-5,5'-bi(1,2,4-triazin)-3-yloxy)ethanamine oxide formation by LC-MS/MS(CID) analysis; assay type: ADME, cell-based, Hepatocyte
[20] = Apparent half life in Swiss mouse at 2.7 mg/kg, iv measured up to 24 hrs by LC-MS analysis; assay type: ADME, organism-based; conditions: in vivo, read-out: t1/2(app) (converted)
Plasmodium falciparum = assay: Antiplasmodial activity against Plasmodium falciparum NF54 by 3H-incorporation growth inhibition assay; assay type: functional, organism-based
Plasmodium = assay: Antimalarial activity against Plasmodium assessed as transmission blocking potential by measuring reduction in female gamete formation by dual gamete formation assay; assay type: functional, organism-based
[21] = Drug metabolism in human liver microsomes assessed as N-methyl-2-(3'-propoxy-5,5'-bi(1,2,4-triazin)-3-yloxy)ethanamine formation by LC-MS/MS(CID) analysis; assay type: ADME, Microsome
[22] = Apparent oral availability in Sprague-Dawley rat at 10 mg/kg measured up to 24 hrs by LC-MS analysis; assay type: ADME, organism-based; conditions: in vivo, read-out: Fapp
[23] = Drug metabolism in mouse liver microsomes assessed as oxygenated metabolite M+16(2) formation by LC-MS/MS(CID) analysis; assay type: ADME, Microsome
[24] = Tmax in Swiss mouse at 2.8 mg/kg, po measured up to 24 hrs by LC-MS analysis; assay type: ADME, organism-based; conditions: in vivo
[25] = Drug metabolism in mouse liver microsomes assessed as formation of cleavage product M-69 by LC-MS/MS(CID) analysis; assay type: ADME, Microsome
[26] = Clearance in Swiss mouse plasma at 2.7 mg/kg, iv measured up to 24 hrs by LC-MS analysis; assay type: ADME, organism-based
[27] = Drug metabolism in Sprague-Dawley rat feces assessed as oxygenated metabolite N-methyl-2-(3'-propoxy-5,5'-bi(1,2,4-triazin)-3-yloxy)ethanamine oxide formation at 10 mg/kg, po by high-resolution mass spectrometry; assay type: ADME, organism-based; conditions: in vivo
[28] = Drug metabolism in Sprague-Dawley rat urine assessed as M-32 metabolite formation at 10 mg/kg, po by high-resolution mass spectrometry; assay type: ADME, organism-based; conditions: in vivo
[29] = Half life in mouse liver microsomes in presence of NADPH by UPLC-MS analysis; assay type: ADME, Microsome
[30] = Drug metabolism in human liver microsomes assessed as formation of cleavage product M-69 in presence of NADPH by LC-MS/MS(CID) analysis; assay type: ADME, Microsome
[31] = Volume of distribution at steady state in Sprague-Dawley rat plasma at 3 mg/kg, iv measured up to 24 hrs by LC-MS analysis; assay type: ADME, organism-based; conditions: read-out: Vdss
[32] = Drug metabolism in Sprague-Dawley rat feces assessed as oxygenated metabolite M+16(2) formation at 3 mg/kg, iv by high-resolution mass spectrometry; assay type: ADME, organism-based; conditions: in vivo
[33] = Half life in human liver microsomes in presence of NADPH by UPLC-MS analysis; assay type: ADME, Microsome
[34] = Toxicity in Swiss mouse assessed as induction of poor posture at 32 mg/kg/day administered for 4 days; assay type: organism-based; conditions: in vivo, 96 h, time 4 day
[35] = Drug metabolism in human liver microsomes assessed as oxygenated metabolite M+16(2) formation by LC-MS/MS(CID) analysis; assay type: ADME, Microsome
[36] = Drug excretion in Sprague-Dawley rat urine 3 mg/kg, iv measured up to 24 hrs by LC-MS analysis; assay type: ADME, organism-based; conditions: read-out: Drug excretion
[37] = Drug metabolism in Sprague-Dawley rat urine assessed as oxygenated metabolite M+16(1) formation at 10 mg/kg, po by high-resolution mass spectrometry; assay type: ADME, organism-based; conditions: in vivo
[38] = AUC (0 to infinity) in Swiss mouse plasma at 27 mg/kg, po measured up to 24 hrs by LC-MS analysis

CCCOc1nncc(-c2cnnc(OCCN(C)C)n2)n1
Drug metabolism [1]: Metabolite_Detected | metabolised at 4 h [2]: 15% | Vd [3]: 3.4 L/kg | Drug metabolism [4]: Metabolite_Detected | Drug metabolism [5]: Metabolite_Detected | Drug metabolism [6]: Metabolite_Detected | solubility kinetic [7]: > 100 µg/mL | ED50 (Plasmodium berghei): 1.85 mg/kg/day | ED90 (Plasmodium berghei): 4.1 mg/kg/day | Drug metabolism [8]: Metabolite_Detected | Drug metabolism [9]: Metabolite_Detected | Drug metabolism [10]: Metabolite_Detected | Drug metabolism [11]: Metabolite_Detected | Drug metabolism [12]: Metabolite_Detected | IC50 (Cytochrome P450 3A4): > 20 µM | AUC(0-inf) [13]: 0.038 µM·h | Drug metabolism [14]: Metabolite_Detected | hepatocyte CLint [15]: 3.7 µL/min/1e6 cells | Cmax [16]: 16.8 nM | Drug metabolism [17]: Metabolite_Detected | dose excreted at 4 h [18]: 0.1% | Drug metabolism [19]: Metabolite_Detected | half-life [20]: 12 min | IC50 (Plasmodium falciparum): 0.021 µM | EC50 (Plasmodium): 2.9 µM | Drug metabolism [21]: Metabolite_Notdetected | bioavailability [22]: 5% | Drug metabolism [23]: Metabolite_Detected | Tmax [24]: 30 min | Drug metabolism [25]: Metabolite_Detected | clearance [26]: 406 mL/min/kg | Drug metabolism [27]: Metabolite_Detected | Drug metabolism [28]: Metabolite_Detected | half-life [29]: 42 min | Drug metabolism [30]: Metabolite_Detected | Vd [31]: 2.8 L/kg | Drug metabolism [32]: Metabolite_Detected | half-life [33]: 229 min | Activity [34]: Non-Toxic | Drug metabolism [35]: Metabolite_Detected | dose excreted at 24 h [36]: < 3% | Drug metabolism [37]: Metabolite_Detected | AUC(0-inf) [38]: 0.44 µM·h
